Assay results from US7129074B2, “Nucleoside triphosphate diphosphohydrolase (NTPDase 8) and uses thereof” (Université Laval, priority 2002, dated 2006).

Key:
[1] = molecular target: T1, mouse NTPDase8 (Mus musculus, UniProt Q8K0L2); assay: NTPDase activity measurement (Pi release, malachite green) on protein extracts of COS-7 cells transfected with mouse NTPDase8; assay type: biochemical; conditions: for Vmax,app / Km: substrate of NTPDase8, Woolf-Augustinsson-Hofstee plot, mean ± SEM; for Km: read-out: Km,app
T1 construct: expressed in transfected cells; host or cells: COS-7
T1 sequence (Q8K0L2 1-497): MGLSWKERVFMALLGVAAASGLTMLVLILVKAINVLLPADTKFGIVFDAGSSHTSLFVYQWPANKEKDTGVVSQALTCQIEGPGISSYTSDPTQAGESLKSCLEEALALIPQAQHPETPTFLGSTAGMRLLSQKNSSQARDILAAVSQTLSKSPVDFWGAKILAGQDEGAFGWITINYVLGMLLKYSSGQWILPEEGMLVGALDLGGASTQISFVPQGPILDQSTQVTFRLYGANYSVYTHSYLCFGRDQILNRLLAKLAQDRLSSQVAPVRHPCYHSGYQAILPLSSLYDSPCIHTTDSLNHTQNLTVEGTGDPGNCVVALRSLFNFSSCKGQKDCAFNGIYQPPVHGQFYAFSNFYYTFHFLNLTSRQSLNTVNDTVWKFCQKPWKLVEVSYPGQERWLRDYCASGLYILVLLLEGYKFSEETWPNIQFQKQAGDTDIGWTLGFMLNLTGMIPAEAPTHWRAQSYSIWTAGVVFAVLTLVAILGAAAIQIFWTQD
Method: COS-7 cells were transfected in 10 cm plates using Lipofectamine™ (Invitrogen), as previously described (Kaczmarek et al, 1996, JBC, 271:33116–33122). Briefly, cells were incubated for 5 h at 37° C. in DMEM in absence of foetal bovine serum (FBS) with 6 μg of plasmid DNA and 24 μl of Lipofectamine™ reagent. The reaction was stopped by adding an equal volume of DMEM containing 20% FBS and cell were harvested 40–44 h later. For protein preparation, transfected cells were washed three times with Tris-saline buffer at 4° C., harvested by scraping in 95 mM NaCl, 0.1 mM PMSF and 45 mM Tris, pH 7.5, and washed twice by 300×g centrifugation for 10 min at 4° C. Cells were resuspended in the harvesting buffer containing 10 μg/ml aprotinin and sonicated. Nucleus and cellular debris were discarded by another centrifugation as described above and the supernatants stored at −80° C. until used. Protein concentration was estimated by the Bradford microplate assay using bovine serum albumin (BSA) as a standard of reference (Bradford, 1976, Analyt. Biochem., 72:248–254).
(§1) Enzyme activity in the protein fractions was determined as previously described (Sévigny et al, 1997, Biochimica Biophysica Acta 1334:73–88) Briefly, enzyme activity was measured at 37° C. in 0.5 ml of the following incubation medium: […] either with 100 mM Tris, pH 7.4 or with 100 mM MES, pH 6.4 or as indicated. Enzyme preparation was added to the incubation mixture and pre-incubated at 37° C. for 3 min. Reaction was started by the addition of 0.5 mM substrate (ATP, ADP, UTP, UDP or AMP) and stopped after 20 min by the addition of 0.125 ml of the malachite green reagent (Baykov and Evtushenko, 1988, Analytical Biochemistry 171:266–270). Activity on intact cells was carried out in similar conditions in 24 wells plates, also 40–44 h after transfection, with the addition of 145 mM NaCl to the incubation medium. The reaction was stopped by taking 0.2 ml of the reaction mixture to a new tube containing 50 μl of malachite reagent. The inorganic phosphate […] released from the hydrolysis of exogenous nucleotides was measured according to Baykov et al. (Baykov and Evtushenko, 1988, Analytical Biochemistry 171:266–270)
Optimum pH was determined in the presence of 5 mM CaCl2 with the following buffers: 100 mM acetate (pH 4.0–5.5), 100 mM MES (pH 5.5–7.0), 100 mM Tris (pH 7.0–9.0) or 100 mM glycine pH (9.0–11.0). In the indicated experiments CaCl2 was substituted by MgCl2. To remove traces of divalent cations 1 mM EDTA plus 1 mM EGTA was added to the medium. One unit of enzyme activity corresponds to the release of 1 μmole Pi/min at 37° C. (LeBel et al., 1980, J. Biol. Chem. 255:1227–1233). All experiments were performed in triplicate with the appropriate controls.

[2] = molecular target: T1, mouse NTPDase8; assay: HPLC separation and quantification of nucleotides hydrolysed by mouse NTPDase8; assay type: biochemical
Method: For HPLC analysis, activity assays were performed in 5 mM CaCl2 and 100 mM MES, pH 6.4 as described above with the following modifications. Aliquots of 20 μL were taken at different time points from the enzymatic reaction and activity stopped by the addition of an equal volume of ice-cold 1 M perchloric acid. The samples were centrifuged for 5 min at 1000×g at 4° C. Supernatants were neutralized with 1 M KOH (4° C.), centrifuged for a subsequent 5 min at 1000×g and then lipids were removed by liquid-liquid extraction with n-heptane (5:1, v/v). An aliquot of 20 μL from the lipid extracted sample was applied to a column connected to a HPLC system.
Adenine nucleotides (ATP, ADP and AMP) were separated on a 15 cm×4.6 mm, 3 μm SUPELCOSIL™ LC-18-T column (Supelco, Bellefonte, Pa., USA) with a mobile phase composed of 25 mM TBA, 5 mM EDTA, 100 mM KH2PO4/K2HPO4, pH 7.0 and 2% methanol (v/v), at a flow-rate of 1 ml/min. […] Combined adenine and uridine nucleotide samples were analyzed with the latter column with a mobile phase composed of 16.7 mM TBA, 3.3 mM EDTA, 66.7 mM KH2PO4/K2HPO4, pH 7.0. The flow rate was 0.5 ml/min for the first 20 min and 1 ml/min up to 90 min. The nucleotides were detected by UV absorption at 260 nm and identified by comparison of the retention time and UV spectrum with the appropriate standards.

[3] = molecular target: T2, human NTPDase8 (Homo sapiens, UniProt Q5MY95, L62P); assay: Activity on protein extracts from human NTPDase8 transient transfected COS-7 cells; assay type: biochemical; conditions: substrate hydrolysis by human NTPDase8 protein extracts
T2 construct: expressed in transfected cells; host or cells: COS-7
T2 sequence (Q5MY95 1-495 L62P): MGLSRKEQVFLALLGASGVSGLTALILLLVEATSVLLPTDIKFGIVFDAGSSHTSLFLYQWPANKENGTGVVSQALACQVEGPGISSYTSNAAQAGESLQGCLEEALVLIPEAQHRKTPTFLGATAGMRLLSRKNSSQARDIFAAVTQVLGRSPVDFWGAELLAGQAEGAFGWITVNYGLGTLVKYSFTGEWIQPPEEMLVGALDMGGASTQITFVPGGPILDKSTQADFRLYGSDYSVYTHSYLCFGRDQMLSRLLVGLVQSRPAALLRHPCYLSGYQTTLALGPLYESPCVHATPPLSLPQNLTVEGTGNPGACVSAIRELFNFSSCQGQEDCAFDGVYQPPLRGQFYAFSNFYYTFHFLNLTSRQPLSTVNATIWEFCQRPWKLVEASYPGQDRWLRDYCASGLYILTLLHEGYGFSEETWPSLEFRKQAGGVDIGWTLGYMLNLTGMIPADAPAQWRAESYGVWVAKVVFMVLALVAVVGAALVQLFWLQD
Method: as §1
The activity of the protein extracts of human NTPDase8 was carried out as described previously herein and the results are shown in Table 3.

[4] = test system: platelet aggregation in PRP; assay: ADP-induced platelet aggregation in human PRP (optic density at 600 nm); assay type: cell-based; conditions: 4 uM ADP; PRP preincubated 25 seconds with 250 ug mNTPDase8 or 3 ug mNTPDase1 protein extracts
Method: Cell membrane preparation and platelet aggregation assays were performed as described before.
PRP prepared from human donors was tested for platelet activation in the presence of exogenous ADP and protein extracts from COS cell transfected with pcDNA3.11V5-His encoding mouse NTPDase8 (mNTPDase8) or mouse (mNTPDase1) (FIG. 6). Optic density at 600 nm was recorded over a period of 8 minutes. Before the addition of 4 uM ADP, PRP was preincubated for 25 seconds with 250 ug mNTPDase8 or 3 ug mNTPDase1 protein extracts, 250 ug untransfected COS cells or without protein extract (agonist: 4 uM ADP). Note that 4 uM ADP induced high levels of platelet aggregation in control samples.

Molecule	Vmax,app [1]	Km [1] [µM]	Activity [3] [nmols Pi/min/mg]	also measured
Nc1ncnc2c1ncn2[C@@H]1O[C@H](COP(=O)(O)OP(=O)(O)O)[C@@H](O)[C@H]1O [ADP]	0.95 ± 0.08 U/mg of protein	41 ± 6	55 ± 15	hydrolysis after 120 min ([2]; formed from ATP incubated with NTPDase8 extracts): completely hydrolyzed
Nc1ncnc2c1ncn2[C@@H]1O[C@H](COP(=O)(O)O)[C@@H](O)[C@H]1O [AMP]	–	–	2 ± 0.6	hydrolysis by NTPDase8 ([1]; in the presence of Ca2+): did not hydrolyze
Nc1ncnc2c1ncn2[C@@H]1O[C@H](COP(=O)(O)OP(=O)(O)OP(=O)(O)O)[C@@H](O)[C@H]1O [ATP]	0.82 ± 0.02 U/mg of protein	13 ± 6	264 ± 7	–
O=c1ccn([C@@H]2O[C@H](COP(=O)(O)OP(=O)(O)O)[C@@H](O)[C@H]2O)c(=O)[nH]1 [UDP]	1.08 ± 0.06 U/mg of protein	171 ± 15	38 ± 5	remaining concentration after 120 min ([2]; formed from UTP incubated with NTPDase8 extracts): 140 µM
O=c1ccn([C@@H]2O[C@H](COP(=O)(O)OP(=O)(O)OP(=O)(O)O)[C@@H](O)[C@H]2O)c(=O)[nH]1 [UTP]	1.13 ± 0.02 U/mg of protein	47 ± 1	271 ± 35	–
mNTPDase8: mouse nucleoside triphosphate diphosphohydrolase 8, SEQ ID NO:1, protein extract from transfected COS-7 cells (protein, PEPTIDE (1)...(497) Mouse HTPDase8) MGLSWKERVFMALLGVAAASGLTMLVLILVKAINVLLPADTKFGIVFDAGSSHTSLFVYQWPANKEKDTGVVSQALTCQIEGPGISSYTSDPTQAGESLKSCLEEALALIPQAQHPETPTFLGSTAGMRLLSQKNSSQARDILAAVSQTLSKSPVDFWGAKILAGQDEGAFGWITINYVLGMLLKYSSGQWILPEEGMLVGALDLGGASTQISFVPQGPILDQSTQVTFRLYGANYSVYTHSYLCFGRDQILNRLLAKLAQDRLSSQVAPVRHPCYHSGYQAILPLSSLYDSPCIHTTDSLNHTQNLTVEGTGDPGNCVVALRSLFNFSSCKGQKDCAFNGIYQPPVHGQFYAFSNFYYTFHFLNLTSRQSLNTVNDTVWKFCQKPWKLVEVSYPGQERWLRDYCASGLYILVLLLEGYKFSEETWPNIQFQKQAGDTDIGWTLGFMLNLTGMIPAEAPTHWRAQSYSIWTAGVVFAVLTLVAILGAAAIQIFWTQD	–	–	–	activity in absence of divalent cations ([1]; 1 mM EDTA and 1 mM EGTA, any of the substrates tested): no activity could be detected; pH of optimal activity ([1]; ADPase activity, evaluated from pH 4.0 to 11.0): ~6.4; pH range in which highly active ([1]; ATPase and ADPase activity, evaluated from pH 4.0 to 11.0): 5.5–7.0; ratio of hydrolysis ATP/ADP ([1]; in the presence of Ca2+): 1.6±0.3; ratio of hydrolysis UTP/UDP ([1]; in the presence of Ca2+): 2.1±0.3; inhibition of platelet aggregation [4]: 53%
mNTPDase1: mouse NTPDase1 protein extract from transfected COS cells (protein, UniProt P55772 1-510, looked up, COS cell extract, mouse NTPDase1 protein extract from transfected COS cells) Ectonucleoside triphosphate …: MEDIKDSKVKRFCSKNILIILGFTSILAVIALIAVGLTQNKPLPENVKYGIVLDAGSSHTNLYIYKWPAEKENDTGVVQQLEECQVKGPGISKYAQKTDEIGAYLAECMELSTELIPTSKHHQTPVYLGATAGMRLLRMESEQSADEVLAAVSTSLKSYPFDFQGAKIITGQEEGAYGWITINYLLGRFTQEQSWLSLISDSQKQETFGALDLGGASTQITFVPQNSTIESPENSLQFRLYGEDYTVYTHSFLCYGKDQALWQKLAKDIQVSSGGVLKDPCFNPGYEKVVNVSELYGTPCTKRFEKKLPFDQFRIQGTGDYEQCHQSILELFNNSHCPYSQCAFNGVFLPPLHGSFGAFSAFYFVMDFFKKVAKNSVISQEKMTEITKNFCSKSWEETKTSYPSVKEKYLSEYCFSGAYILSLLQGYNFTDSSWEQIHFMGKIKDSNAGWTLGYMLNLTNMIPAEQPLSPPLPHSTYIGLMVLFSLLLVAVAITGLFIYSKPSYFWKEAV	–	–	–	inhibition of platelet aggregation [4]: 100%
